Reference: patent US9814712B2, “(S)-pirlindole and its pharmaceutically acceptable salts for use in medicine” (TECNIMEDE SOCIEDADE TECNICO-MEDICINAL S.A., priority 2014, dated 2017)

System: spared nerve injury (SNI) model, mechanical allodynia
Assay: Von Frey test of mechanical allodynia in the spared nerve injury (SNI) model
Format: in vivo, Sprague-Dawley rats
Settings: SNI rats, 20 mg/kg i.p. daily, Von Frey monofilaments, naive and sham 15 g
Description: For this purpose, the inventors have chosen the animal model designed by Decosterd and Woolf (Pain, 2000), which developed a partial denervation model, technically easy to perform and subject to minimal variability in the degree of damage produced. Most important was that this is a model that will enable a direct measurement of changes in both injured primary sensory neurons and in neighbouring intact sensory neurons so that their relative contribution to the pathophysiology of pain could be investigated. […] All procedures were performed on adult (200-250 g) male Sprague-Dawley rats. Under halothane (2%) anesthesia, the skin on the lateral surface of the thigh was incised and a section made directly through the biceps femoris muscle exposing the sciatic nerve and its three terminal branches: the sural, the common peroneal and the tibial nerves. The spared nerve injury procedure comprised an axotomy and ligation of the tibial and common peroneal nerves leaving the sural nerve intact. The common peroneal and the tibial nerves were tight-ligated with 5.0 silk and sectioned distal to the ligation, removing 2±4 mm of the distal nerve stump. Great care was taken to avoid any contact with or stretching of the intact sural nerve. Muscle and skin were closed in two layers. Sham controls involved exposure of the sciatic nerve and its branches without any lesion. The Von Frey test is a mechanical sensitivity assay that consists of thin calibrated plastic filaments, called Von Frey hairs, which are applied to the plantar surface of the hindpaw of the tested animal. The filaments present different degrees of stiffness that are used to determine the one that evokes a hindpaw withdrawal. Each filament, starting with the less stiff, is applied to the plantar surface of both hindpaws of each rat. The process is repeated with Von Frey hairs of increasing stiffness until one evokes a reflexive and sustained hindpaw withdrawal. This is defined as the withdrawal threshold, is measured in grams and is an indicator of mechanical allodynia. In the present example the animals were divided in 6 (six) groups (n=7 per group): naive control (negative control), sham control, SNI plus water (positive control), SNI plus (rac)-pirlindole 20 mg/kg, SNI plus (S)-pirlindole 20 mg/kg, SNI plus (R)-pirlindole 20 mg/kg and. After the application of surgical procedure to the groups of sham control, SNI plus water (positive control), SNI plus (rac)-pirlindole, SNI plus (S)-pirlindole and SNI plus (R)-pirlindole, the animals were confined during a 7 weeks (7 wk) period aiming the full induction of mechanical allodynia. Following a 3 week (3 wk), treatment period was started and water or one of the test items (rac-pirlindole, S-pirlindole and R-pirlindole) were administered by intraperitoneal (ip) route, on a daily basis. At the 2nd and 3rd week of treatment the mechanical allodynia was tested. The animals were placed on an elevated wire grid and the plantar surface of the paw stimulated with a series of ascending force Von Frey monofilaments. The threshold was taken as the lowest force that evoked a brisk withdrawal response to one of the repetitive stimuli (Tal and Bennett, 1994). The lateral and medial plantar surfaces of the paw as well as its dorsal surface were tested.

[1] = wk2 of treatment, SNI plus water 0.41 g
[2] = wk3 of treatment, SNI plus water 0.14 g

SMILES | mean lowest force that evoked a brisk withdrawal response [1] [g] | mean lowest force that evoked a brisk withdrawal response [2] [g]
Cc1ccc2c(c1)c1c3n2CCN[C@H]3CCC1 [(S)-pirlindole] | 4.51 | 7.43
Cc1ccc2c(c1)c1c3n2CCN[C@@H]3CCC1 [(R)-pirlindole] | 3.08 | 1.39
Cc1ccc2c(c1)c1c3n2CCNC3CCC1 (racemic) [(rac)-pirlindole, 2,3,3a,4,5,6-hexahydro-8 methyl-1H-pyrazino [3,2,1-j, k] carbazole] | 3.50 | 2.08
